Consider 39 molecules from US8685974B2 (Bayer CropScience AG, priority 2009, dated 2014).

One data set relates to Alternaria solani. Briefly: Alternaria test (tomato) / protective. Type of data set: in vivo. To be noted: 500 ppm active compound, protective spray, evaluated 7 days after inoculation. The method, then:
Alternaria Test (Tomato)/Protective
Solvent: 49 parts by weight of N,N-dimethylformamide
Emulsifier: 1 part by weight of alkylaryl polyglycol ether
To produce a suitable preparation of active compound, 1 part by weight of active compound is mixed with the stated amounts of solvent and emulsifier, and the concentrate is diluted with water to the desired concentration.
To test for protective activity, young tomato plants are sprayed with the preparation of active compound at the stated application rate. […] The plants then remain at 96% rel. atmospheric humidity and a temperature of 20° C.
Evaluation is carried out 7 days after the inoculation. 0% means an efficacy which corresponds to that of the control, whereas an efficacy of 100% means that no infection is observed.

The test system of a further data set is Fusarium graminearum. Type of data set: cell-based. To be noted: 50 μM; for % Inhibition of DON/AcDON at 50 μM: 7 days at 28° C.

Where two headings read alike, the source gives them in different places. Marks after values point to notes of the source that are not given here.

Take `c1cc(-c2cn(C3CCCC3)nc2-c2cc3ccsc3s2)ccn1` [Example 332]: in the data set with Alternaria solani, the efficacy was 94%. Besides, the log p (pH 2.7) was 2.25^[b].
Molecule `CC1(Cn2cc(-c3ccncc3)c(-c3ccc(F)s3)n2)CC1(Cl)Cl` (stereo not shown) [Example 342] gave an efficacy in the data set with Alternaria solani of 89%. In the data set on Fusarium graminearum, the “% Inhibition of fungal growth at 50 μM” value was found to be 23% and the “% Inhibition of DON/AcDON at 50 μM” value is given as 97%. Also, the log p (pH 2.7) was 2.39^[b].
For `O=C1OCCC1n1cc(-c2ccncc2)c(-c2ccc(Br)s2)n1` (stereo not shown) [Example 385], in that order: 94%, 17%, 82% and 1.52^[b].
The matching figures for `CC(C)n1cc(-c2ccncc2)c(-c2cccs2)n1` [Example 300]: 95%, 100%, 99% and 1.27^[b].
`Fc1ccc(-c2nn(C3CCCC3)cc2-c2ccncc2)s1` [Example 344] returned an efficacy in the data set with Alternaria solani of 94%. Moreover, in the data set with Fusarium graminearum, the “% Inhibition of fungal growth at 50 μM” value came to 91% and the “% Inhibition of DON/AcDON at 50 μM” value worked out at 98%. In addition, the log p (pH 2.7) was 2.02^[b].
`Fc1cccc(Cn2cc(-c3ccncc3)c(-c3ccc(Br)s3)n2)c1F` [Example 353]: the efficacy in the data set on Alternaria solani amounted to 78%. Besides, the log p (pH 2.7) was 2.44^[b].
In the data set on Alternaria solani, `FCCn1cc(-c2ccncc2)c(-c2ccc(F)s2)n1` [Example 375] yielded an efficacy of 100%. Further, in the data set with Fusarium graminearum, the “% Inhibition of fungal growth at 50 μM” value is recorded as 78% and the “% Inhibition of DON/AcDON at 50 μM” value worked out at 99%. Besides, the log p (pH 2.7) was 1.16^[b].
As for `CCn1cc(-c2ccncc2)c(-c2ccc(F)s2)n1` [Example 377], the efficacy in the data set with Alternaria solani is 100%. In the data set with Fusarium graminearum, the “% Inhibition of fungal growth at 50 μM” value was 89% and the “% Inhibition of DON/AcDON at 50 μM” value worked out at 99%. Moreover, for the setting “pH 2.7”, the log p was 1.28^[b] and the “logP value of the minor isomer” value was “(1.22)”.
Take `FC(F)(F)Cn1cc(-c2ccncc2)c(-c2cc3ccsc3s2)n1` [Example 330]: in the data set on Alternaria solani, the efficacy was determined as 94%. Also, in the data set on Fusarium graminearum, the “% Inhibition of fungal growth at 50 μM” value was determined as 31% and the “% Inhibition of DON/AcDON at 50 μM” value stood at 94%. Moreover, under “pH 2.7”, the log p is 1.91^[b].
For `CCC(C)n1cc(-c2ccnc(NC(=O)OC(C)C)c2)c(-c2ccc(Cl)s2)n1` (stereo not shown) [Example 239], the efficacy with Alternaria solani was determined as 80%. Moreover, the log p (pH 2.7) was 4.33^[b].
On to `CCn1cc(-c2ccncc2)c(-c2cc3ccsc3s2)n1` [Example 329], for which, in the data set with Alternaria solani, the efficacy was 94%. In the data set with Fusarium graminearum, the “% Inhibition of fungal growth at 50 μM” value is on record as 85% and the “% Inhibition of DON/AcDON at 50 μM” value turned out to be 98%. For the same molecule, under “pH 2.7”, the log p was 1.57^[b].
The matching figures for `FCCn1cc(-c2ccncc2)c(-c2cc3ccsc3s2)n1` [Example 367]: 78%, 78%, 99% and 1.45^[b].
In turn, `O=C1OCCC1n1cc(-c2ccncc2)c(-c2ccc(Cl)s2)n1` (stereo not shown) [Example 365] displayed an efficacy in the data set on Alternaria solani of 78%. Further, in the data set on Fusarium graminearum, the “% Inhibition of fungal growth at 50 μM” value is 100% and the “% Inhibition of DON/AcDON at 50 μM” value is 90%. Moreover, for the setting “pH 2.7”, the log p was 1.48^[b].
For `FC(F)(F)Cn1cc(-c2ccncc2)c(-c2ccc(Br)s2)n1` [Example 391], in that order: 100%, 97%, 99% and 1.98^[b].
The matching figures for `CCC(C)n1nc(-c2ccc(Cl)s2)c(-c2ccncc2)c1Cl` (stereo not shown) [Example 201]: 78%, 39%, 94% and 3.44^[b].
With `CC(C)Cn1cc(-c2ccnc(N)c2)c(-c2ccc(Cl)s2)n1` [Example 76], in the data set on Alternaria solani, the efficacy is given as 89%. In addition, the “logP value of the minor isomer (in parenthesis in column Isomer ratio [d])” value (minor isomer, main value of the example measured by method [a], pH 2.3) is listed as “(1.93)”. Further, the log p (pH 2.3) is 2.04^[a].
In the data set with Alternaria solani, `CCCc1c(-c2ccncc2)c(-c2sccc2C)nn1C` [Example 165] yielded an efficacy of 70%. Where the note is “pH 2.7”, the log p was 1.31^[b] and the “logP value of the minor isomer” value was 1.46^[b]). Where the note is “pH 7.8”, the log p was 2.59^[c]; and the “logP value of the minor isomer” value is “(2.79^[c];”.
`CC(C)(C)Cn1cc(-c2ccncc2)c(-c2ccc(F)s2)n1` [Example 345] registered an efficacy in the data set on Alternaria solani of 94%. Also, in the data set with Fusarium graminearum, the “% Inhibition of fungal growth at 50 μM” value amounted to 63% and the “% Inhibition of DON/AcDON at 50 μM” value is 97%. In addition, for the setting “pH 2.7”, the log p is 2.11^[b].
`C=CCNc1nccc(-c2cn(C(C)CC)nc2-c2ccc(Cl)s2)n1` (stereo not shown) [Example 196]: in the data set with Fusarium graminearum, the “% Inhibition of fungal growth at 50 μM” value stood at 83% and the “% Inhibition of DON/AcDON at 50 μM” value came out at 99%. The log p (pH 2.3) is 3.39^[a].
In the case of `CC(C)Cn1cc(-c2ccncc2)c(-c2ccc(F)s2)n1` [Example 379], the efficacy with Alternaria solani worked out at 94%. In the data set on Fusarium graminearum, the “% Inhibition of fungal growth at 50 μM” value came out at 90% and the “% Inhibition of DON/AcDON at 50 μM” value is 99%. For the same molecule, where the note is “pH 2.7”, the log p is 1.82^[b] and the “logP value of the minor isomer” value is recorded as “(1.72)”.
`CCOCCn1cc(-c2ccncc2)c(-c2ccc(F)s2)n1` [Example 374]: the efficacy in the data set with Alternaria solani is 94%. In the data set with Fusarium graminearum, the “% Inhibition of fungal growth at 50 μM” value is on record as 58% and the “% Inhibition of DON/AcDON at 50 μM” value turned out to be 99%. Besides, under “pH 2.7”, the log p was 1.43^[b].
On to `Cn1cc(-c2ccnc(Cl)c2)c(-c2ccc(Cl)s2)n1` [Example 313], for which, in the data set with Fusarium graminearum, the “% Inhibition of fungal growth at 50 μM” value worked out at 6% and the “% Inhibition of DON/AcDON at 50 μM” value stood at 98%. Where the note is “pH 2.7”, the log p was 3.37^[b].
Take `CC(C)n1ncc(-c2ccncc2)c1-c1ccc(F)s1` [Example 109]: in the data set with Fusarium graminearum, the “% Inhibition of fungal growth at 50 μM” value is 49% and the “% Inhibition of DON/AcDON at 50 μM” value worked out at 100%. Also, the log p (pH 2.7) is 1.51^[b].
Turning to `Fc1ccc(-c2nn(Cc3ccc(Cl)s3)cc2-c2ccncc2)s1` [Example 341], in the data set with Fusarium graminearum, the “% Inhibition of fungal growth at 50 μM” value was 55% and the “% Inhibition of DON/AcDON at 50 μM” value is given as 96%. The log p (pH 2.7) is 2.34^[b].
For `Fc1ccc(-c2n[nH]cc2-c2ccncc2)s1` [Example 105], in that order: 0%, 88% and 0.57^[b].
As to `CCn1cc(-c2ccnc(NC(=O)N(C)C)c2)c(-c2ccc(Cl)s2)n1` [Example 251], in the data set on Fusarium graminearum, the “% Inhibition of fungal growth at 50 μM” value amounted to 100% and the “% Inhibition of DON/AcDON at 50 μM” value was determined as 99%. For the same molecule, the log p (pH 2.7) was 1.72^[b].
The matching figures for `CC(C)Cn1ncc(-c2ccncc2)c1-c1ccc(Br)s1` [Example 406]: 0%, 95% and 1.91^[b].
The matching figures for `Clc1ccc(Cn2cc(-c3ccncc3)c(-c3ccc(Br)s3)n2)s1` [Example 351]: 36%, 99% and 2.69^[b].
For the molecule `CCn1cc(-c2ccnc(Cl)c2)c(-c2ccc(Cl)s2)n1` [Example 316], in the data set on Fusarium graminearum, the “% Inhibition of fungal growth at 50 μM” value came to 37% and the “% Inhibition of DON/AcDON at 50 μM” value is 87%. The log p (pH 2.7) is 3.89^[b].
As for `ClCCn1cc(-c2ccncc2)c(-c2ccc(Br)s2)n1` [Example 393], in the data set with Fusarium graminearum, the “% Inhibition of fungal growth at 50 μM” value was determined as 96% and the “% Inhibition of DON/AcDON at 50 μM” value came to 99%. Besides, where the note is “pH 2.7”, the log p was 1.78^[b] and the “logP value of the minor isomer” value is reported as “(1.61)”.
In the data set with Alternaria solani, `Cn1cc(-c2ccnc(N)c2)c(-c2ccc(Cl)s2)n1` [Example 305] came in with an efficacy of 70%. Further, for the setting “pH 2.7”, the log p is 1.34^[b].
On to `CC(C)n1cc(-c2ccncc2)c(-c2ccc(I)s2)n1` [Example 214], for which, in the data set with Fusarium graminearum, the “% Inhibition of fungal growth at 50 μM” value is listed as 89% and the “% Inhibition of DON/AcDON at 50 μM” value was found to be 99%. For the same molecule, where the note is “pH 2.7”, the log p was 1.89^[b].
For `CC(C)(C)Cn1cc(-c2ccncc2)c(-c2cc3ccsc3s2)n1` [Example 334], in the data set with Alternaria solani, the efficacy worked out at 78%. Moreover, the log p (pH 2.7) was 2.35^[b].
The matching figures for `CC(C)n1cc(-c2ccnc(NC(=O)c3ccccc3)c2)c(-c2ccc(Cl)s2)n1` [Example 260]: 80% and 4.03^[b].
For `N#CCn1cc(-c2ccncc2)c(-c2ccc(Br)s2)n1` [Example 348], in the data set with Fusarium graminearum, the “% Inhibition of fungal growth at 50 μM” value is on record as 45% and the “% Inhibition of DON/AcDON at 50 μM” value came to 99%. The log p (pH 2.7) is 1.51^[b].
The matching figures for `COCC(=O)Nc1cc(-c2cn(C(C)C)nc2-c2ccc(Cl)s2)ccn1` [Example 244]: 100%, 99% and 3.25^[b].
On to `Nc1cc(-c2cn(/C=C/F)nc2-c2ccc(Cl)s2)ccn1` [Example 301], for which, in the data set with Fusarium graminearum, the “% Inhibition of fungal growth at 50 μM” value is 60% and the “% Inhibition of DON/AcDON at 50 μM” value stood at 99%. For the same molecule, under “pH 2.7”, the log p was 1.59^[b].
In the case of `CC(C)Cn1cc(-c2ccnc(N(C(=O)C3CC3)C(=O)C3CC3)c2)c(-c2ccc(Cl)s2)n1` [Example 82], in the data set with Alternaria solani, the efficacy is recorded as 78%. Also, the log p (pH 2.3) is 4.75^[a].
`ClCCn1cc(-c2ccncc2)c(-c2cc3ccsc3s2)n1` [Example 370]: in the data set on Fusarium graminearum, the “% Inhibition of fungal growth at 50 μM” value was 70% and the “% Inhibition of DON/AcDON at 50 μM” value came to 99%. For the same molecule, under “pH 2.7”, the log p is 1.7^[b].
